These results are taken from ChEMBL document CHEMBL1126352, “Novel stereoselective calcium channel ligands of the diphenylalkylamine-type” (Bioorg Med Chem Lett, 1992).

This test deals with Voltage-gated L-type calcium channel (Rattus norvegicus, UniProt P22002+Q02485+P27732). In words: Inhibition of [3H]nitrendipine binding to calcium channel of rat brain membranes. Format: cell membranes, Membrane.

In the case of `CC(C)(C)c1ccc(CCCCN2CCC(C(O)(c3ccccc3)c3ccc(Cl)cc3)CC2)cc1` (racemic), the Kd is on record as 1.15e-7 M l-1. Turning to `CC(Cc1ccccc1)NCCC(c1ccccc1)c1ccccc1` (stereo not drawn) [PRENYLAMINE], the Kd was 2.09e-7 M l-1. For `CC(C)(C)c1ccc(CCCCN2CCC(C(O)(c3ccccc3)c3ccc(Cl)cc3)CC2)cc1` (stereo in doubt), the Kd is given as 9.36e-8 M l-1.
